Test: xn = mol fraction of the nth substance listed
Details: 101 kPa, Liquid, Vibrating tube method

CCCCN(CCCC)CCCC [tributylamine] + Cc1ccc(C)cc1
mass density [kg/m3]
Details	293.15 K	298.15 K	303.15 K	313.15 K	323.15 K	333.15 K
x1 = 0.0834	848.23	843.97	839.71	831.14	822.53	813.86
x1 = 0.1617	837.85	833.67	829.48	821.06	812.59	804.05
x1 = 0.2416	828.6	824.47	820.35	812.06	803.72	795.32
x1 = 0.3196	820.59	816.53	812.46	804.29	796.06	787.79
x1 = 0.3984	813.4	809.38	805.37	797.3	789.19	781.03
x1 = 0.482	806.6	802.64	798.67	790.72	782.71	774.64
x1 = 0.56	800.89	796.97	793.04	785.17	777.26	769.29
x1 = 0.633	796.02	792.14	788.26	780.46	772.62	764.73
x1 = 0.7229	790.59	786.75	782.91	775.2	767.45	759.65
x1 = 0.7717	787.86	784.05	780.24	772.57	764.86	757.1
x1 = 0.878	782.45	778.68	774.9	767.33	759.71	752.04
x1 = 0.9458	779.3	775.56	771.81	764.28	756.72	749.1

CCCCN(CCCC)CCCC [tributylamine] + Cc1ccccc1C
mass density [kg/m3]
Details	293.15 K	298.15 K	303.15 K	313.15 K	323.15 K	333.15 K
x1 = 0.0762	865.26	861.1	856.94	848.59	840.19	831.72
x1 = 0.1611	851.26	847.17	843.07	834.83	826.55	818.19
x1 = 0.2324	840.99	836.94	832.88	824.73	816.54	808.28
x1 = 0.3142	830.6	826.6	822.59	814.54	806.44	798.29
x1 = 0.3986	821.15	817.19	813.22	805.26	797.25	789.19
x1 = 0.481	812.95	809.03	805.1	797.21	789.28	781.29
x1 = 0.5686	805.17	801.29	797.4	789.61	781.76	773.87
x1 = 0.6368	799.67	795.83	791.97	784.23	776.45	768.61
x1 = 0.7145	793.98	790.16	786.34	778.66	770.94	763.17
x1 = 0.769	790.27	786.47	782.67	775.03	767.36	759.64
x1 = 0.8741	783.74	779.98	776.21	768.65	761.06	753.41
x1 = 0.9545	779.3	775.56	771.81	764.3	756.75	749.14

— the NIST ThermoML archive (doi:10.1016/j.jct.2011.10.027)
